This is an account of results in the supplement of paper PMC10307832.

Test in all cases: relative viability (nuclei count vs DMSO), 5 days (fraction); higher = more cells survive
Compound in assay [1]: CN1C=C(C2=CC=CC=C21)/C=C\3/C4=C(C=CC=N4)NC3=O + N=C(N)NC(=N)NCCc1ccccc1 [Phenformin] (partner 250 µM)
The gist of the method:
(§1)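 Five library-drug doses in √10 steps were combined with a fixed anchor-drug dose, or a single drug was given alone, by pin tool to lung cancer cell lines in 1536-well plates the day after seeding. Nuclei were stained and counted after 5 days. Relative viability is the nuclei count in treated wells over that in vehicle wells, taken as the median of duplicate plates.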

Compound in the assay “Trametinib + OSI-027”: CC(=O)Nc1cccc(-n2c(=O)n(C3CC3)c(=O)c3c(Nc4ccc(I)cc4F)n(C)c(=O)c(C)c32)c1 [Trametinib] + COc1cccc2cc(-c3nc([C@H]4CC[C@H](C(=O)O)CC4)n4ncnc(N)c34)[nH]c12 [OSI-027] (partner 0.5 µM)
The gist of the method:
as §1

Compound in assay [2]: CN1C=C(C2=CC=CC=C21)/C=C\3/C4=C(C=CC=N4)NC3=O + COc1cc2c(Oc3ccc(NC(=O)C4(C(=O)Nc5ccc(F)cc5)CC4)cc3F)ccnc2cc1OCCCN1CCOCC1 [Foretinib] (partner 0.25 µM)
The gist of the method: as §1

Compound in assay [3]: CN1C=C(C2=CC=CC=C21)/C=C\3/C4=C(C=CC=N4)NC3=O + Nc1ncn([C@H]2C[C@H](O)[C@@H](CO)O2)c(=O)n1 [Decitabine] (partner 2 µM)
Put shortly:
as §1

As for UMC-11, the relative viability is 0.299 in assay [1] (first compound 0.02 µM); 0.306 in assay [1] (first compound 0.06325 µM); 0.265 in assay [1] (first compound 0.2 µM); 0.369 in assay [1] (first compound 0.6325 µM); 0.34 in assay [1] (first compound 2 µM); 0.478 with Trametinib + OSI-027 (first compound 0.0025 µM). Also, the relative viability with Trametinib + OSI-027 (first compound 0.007906 µM) was 0.403; with Trametinib + OSI-027 (first compound 0.025 µM), 0.291; in the assay with Trametinib + OSI-027 (first compound 0.07906 µM), 0.414; with Trametinib + OSI-027 (first compound 0.25 µM), 0.406; in assay [2] (first compound 0.02 µM), 0.835; in assay [2] (first compound 0.06325 µM) it was 0.979. The relative viability in assay [2] (first compound 0.2 µM) turned out to be 1.06; in assay [2] (first compound 0.6325 µM), 1.14; in assay [2] (first compound 2 µM), 1.29; in assay [3] (first compound 0.02 µM), 0.604; in assay [3] (first compound 0.06325 µM), 0.631; in assay [3] (first compound 0.2 µM), 0.497. Moreover, the results for the relative viability in assay [3] (first compound 0.6325 µM) and in assay [3] (first compound 2 µM) were 0.395 and 0.646, respectively.
